From patent US20250353891A1 (MEDIMMUNE LIMITED, priority 2022, published 2025) come the findings set out here.

Starred links: 1 amine or outer side, 2 acyl side, 3 side chain; linkers in the order of their positions; H or OH if unused. Non-standard residues stand in square brackets, D forms with d. Residues, ends and D or L forms follow the SMILES beside them. Groups on a side chain read outwards from the residue. *: point of attachment. C20 diacid = O=C(O)CCCCCCCCCCCCCCCCCCC(=O)*; C18 diacid = O=C(O)CCCCCCCCCCCCCCCCC(=O)*; γGlu = O=C(O)[C@H](CCC(=O)[*:2])N[*:1]; αMeF = C[C@](N)(Cc1ccccc1)C(=O)O; AEEA = NCCOCCOCC(=O)O; Aib = CC(C)(N)C(=O)O

The target of data set [1] is human glucagon receptor (hGCGR) (Homo sapiens, UniProt P47871). Kind of data set: cAMP production (HTRF) in CHO cells expressing hGCGR. Format: cell-based. The note with it: Table 6, peptides modified at position 17; cAMP in CHO hGCGR cells; geometric mean; read-out: hGluc-R EC50. The arrangement: expressed in transfected cells. In outline: (§1)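 Read-out: HTRF cAMP (anti-cAMP cryptate donor, cAMP-d2 acceptor in conjugate/lysis buffer), converted to % Delta F and fitted by 4-parameter logistic for EC50. Cell densities were 1×10^5 cells/mL (hGLP-1R) or 2×10^5 cells/mL (hGCGR). Stimulation lasted 30 min at room temperature.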
Chain of human glucagon receptor (hGCGR) (P47871 26-477): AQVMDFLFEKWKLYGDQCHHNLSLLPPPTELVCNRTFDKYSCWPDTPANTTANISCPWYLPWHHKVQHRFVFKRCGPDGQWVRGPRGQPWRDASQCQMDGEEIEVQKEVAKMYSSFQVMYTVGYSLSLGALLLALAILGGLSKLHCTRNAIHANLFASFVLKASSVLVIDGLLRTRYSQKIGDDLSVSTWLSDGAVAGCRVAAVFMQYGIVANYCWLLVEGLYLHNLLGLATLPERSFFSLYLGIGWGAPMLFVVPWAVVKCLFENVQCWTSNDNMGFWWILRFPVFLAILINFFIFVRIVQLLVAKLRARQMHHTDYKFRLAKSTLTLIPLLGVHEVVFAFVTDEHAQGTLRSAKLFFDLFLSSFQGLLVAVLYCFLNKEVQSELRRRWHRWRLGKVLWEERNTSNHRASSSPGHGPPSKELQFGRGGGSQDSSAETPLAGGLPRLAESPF

The test system of data set [2] is GLP-1R knockout (KO) mice. In words: Glucose change in GLP-1R knockout mice. It counts as in vivo, mouse. Conditions: GLP-1R KO mice, s.c., 60 min vs 0 min, no somatostatin pretreatment. In outline:
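GLP-1R knockout mice (n=4-8/group, sorted by body weight) were fasted 2 h, and in some studies pretreated with octreotide 10 mg/kg 30 min before peptide injection. Mice were reused up to 3 times with at least 1-week wash-out.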

Data set [3] deals with human GLP-1 receptor (hGLP-1R) (Homo sapiens, UniProt P43220). Kind of data set: cAMP production (HTRF) in CHO cells expressing hGLP-1R. It counts as cell-based. The note with it: for EC50: Table 6, peptides modified at position 17, cAMP in CHO hGLP-1R cells, geometric mean, read-out: hGLP-1R EC50; for % Relative Potency Ratio: Table 6, % GLP-1R activity relative to GLP-1 / % GlucR activity relative to glucagon. The arrangement: expressed in transfected cells. In outline:
as §1
A general note: Changes in cAMP serve as a functional read-out for many G protein-coupled receptors.

The nature of data set [4]: Mouse acute food intake study. Format: in vivo. The note with it: male C57Bl/6 mice, s.c., dose 10 nmol/kg, cumulative food intake at 24 hr vs vehicle. In outline:
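Single-housed male C57Bl/6 mice (8-9 weeks on arrival), chow-fed, acclimated and sham-dosed ≥2 times, were fasted 6-8 h, then given vehicle or peptide subcutaneously at 5 mL/kg 1-2 h before lights out. Food intake was recorded automatically over 48 h and analysed as cumulative intake.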

The nature of the next data set: in vivo. Conditions: male, C57BL/6, mouse, 10 nmol/kg; for half-life: iv. From the text:
Selected test peptides (n=8) were profiled for pharmacokinetic (PK) properties in the mouse after single intravenous (i.v.) or subcutaneous (s.c.) dose. A subset (n=4) meeting the acceptance criteria was subsequently profiled in the dog (single i.v. dose) and non-human primate (single i.v. and s.c. dose). […] Low-binding plasticware containers were used during preparation and sample handling to avoid non-specific binding.
After dosing, PK samples were collected from the dorsal metatarsal vein. Blood of each sample was transferred into plastic micro centrifuge tubes containing EDTA-K2, inverted several times for proper mixing of contents and then placed on wet ice. The blood samples were centrifuged at 4° C. to obtain plasma and stored at −75° C. prior to analysis.
Samples analysis: Samples were analyzed by LC-MS/MS. Calibration standards were injected at the beginning and end of each batch and the determined concentration for each prepared standard was used to construct a calibration curve. Plasma and dose aliquot sample concentrations were determined from the plasma calibration curve.
Data analysis: Plasma concentration data was analyzed by non-compartmental analysis (NCA) using Phoenix Winnonlin v. 8.3.3.33. Linear trapezoidal rule was used for increasing values and log trapezoidal rule was used for decreasing values, applying uniform weighting for lambda_z calculations. Subcutaneous bioavailability was calculated as the ratio AUC(s.c.)0-inf/AUC(i.v.)0-inf. Reported values (Table 18) represent the mean of the individual estimates.

Another data set has as its system wildtype (WT) mice. Kind of data set: Glucose change in wildtype mice. It counts as in vivo, mouse. Conditions: s.c., 60 min vs 0 min, no somatostatin pretreatment. In outline:
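Wildtype mice aged 8-14 weeks, fasted 2 h, sometimes pre-treated with octreotide 10 mg/kg 30 min before peptide injection. Blood glucose by glucometer at -30, 0, 30, 60, 120, 180, 240 and 360 min; n=4-8/group, mice reused up to 3 times with ≥1 week wash-out.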

Chain of human GLP-1 receptor (hGLP-1R) (P43220 24-463): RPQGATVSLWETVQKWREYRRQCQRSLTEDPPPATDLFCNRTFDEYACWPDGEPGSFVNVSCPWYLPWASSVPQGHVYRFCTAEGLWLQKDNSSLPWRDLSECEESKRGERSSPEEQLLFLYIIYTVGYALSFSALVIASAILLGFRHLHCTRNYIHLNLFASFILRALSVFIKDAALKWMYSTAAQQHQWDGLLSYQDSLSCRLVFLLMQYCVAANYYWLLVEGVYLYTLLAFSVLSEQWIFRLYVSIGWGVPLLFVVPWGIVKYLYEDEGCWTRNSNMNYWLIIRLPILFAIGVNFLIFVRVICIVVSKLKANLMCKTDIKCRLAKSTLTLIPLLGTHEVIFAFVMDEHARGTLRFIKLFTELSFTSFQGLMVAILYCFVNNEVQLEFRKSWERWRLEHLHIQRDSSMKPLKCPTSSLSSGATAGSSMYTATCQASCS

On to `CC(C)C[C@H](NC(=O)[C@H](Cc1c[nH]c2ccccc12)NC(=O)[C@H](CCCNC(=N)N)NC(=O)[C@@H](NC(=O)[C@H](Cc1ccccc1)NC(=O)[C@H](CC(=O)O)NC(=O)[C@H](CCC(N)=O)NC(=O)[C@H](C)NC(=O)[C@H](CCCNC(=N)N)NC(=O)[C@H](CCCCNC(=O)COCCOCCNC(=O)COCCOCCNC(=O)CC[C@H](NC(=O)CCCCCCCCCCCCCCCCC(=O)O)C(=O)O)NC(=O)[C@@H](NC(=O)[C@H](CC(=O)O)NC(=O)[C@H](CC(C)C)NC(=O)[C@](C)(Cc1ccccc1)NC(=O)[C@H](CCCCN)NC(=O)[C@H](CO)NC(=O)[C@@H](NC(=O)[C@H](CC(=O)O)NC(=O)[C@H](CO)NC(=O)[C@@H](NC(=O)[C@H](Cc1ccccc1)NC(=O)[C@@H](NC(=O)CNC(=O)[C@H](CCC(N)=O)NC(=O)C(C)(C)NC(=O)[C@@H](N)Cc1c[nH]cn1)[C@@H](C)O)[C@@H](C)O)C(C)C)[C@@H](C)O)C(C)C)C(=O)N[C@@H](CC(C)C)C(=O)N[C@@H](CCC(=O)O)C(=O)NC(C)(C)C(=O)NCC(=O)O` [Peptide 140] (H-H[Aib]QGTFTSDVSK[αMeF]LDTK([AEEA-AEEA-γGlu-C18 diacid])RAQDFVRWLLE[Aib]G-OH; N-terminus assumed), for which the figures for the EC50 in data set [1] and in data set [3] were 0.0464 nM and 0.0227 nM, respectively. Besides, the “GLP-1R KO % glucose change - 60 min” value in data set [2] (10 nmol/kg) is recorded as 46.2%; in data set [2] (30 nmol/kg) it was 59.8%. In addition, the “% Relative Potency Ratio” value in data set [3] came out at 4.0. Moreover, the “24 hr % Vehicle Food Intake” value in data set [4] is given as 65.4%. For the same compound, the bioavailability in “in vivo” turned out to be 102%. Also, in the data set “in vivo”, the half-life (commonly the time in which the quantity being followed falls by half) was 6.4 h. Besides, the “WT % glucose change 60 min” value is on record as −32.1% in the data set with wildtype (WT) mice (10 nmol/kg) and −29.0% with wildtype (WT) mice (30 nmol/kg).

For `CC(C)C[C@H](NC(=O)[C@H](Cc1c[nH]c2ccccc12)NC(=O)[C@H](CCCNC(=N)N)NC(=O)[C@@H](NC(=O)[C@H](Cc1ccccc1)NC(=O)[C@H](CC(=O)O)NC(=O)[C@H](CCC(N)=O)NC(=O)[C@H](C)NC(=O)[C@H](CCCNC(=N)N)NC(=O)[C@H](CCCCNC(=O)COCCOCCNC(=O)COCCOCCNC(=O)CC[C@H](NC(=O)CCCCCCCCCCCCCCCCC(=O)O)C(=O)O)NC(=O)[C@H](CCCCN)NC(=O)[C@H](CC(=O)O)NC(=O)[C@H](CC(C)C)NC(=O)[C@](C)(Cc1ccccc1)NC(=O)[C@H](CCCCN)NC(=O)[C@H](CO)NC(=O)[C@@H](NC(=O)[C@H](CC(=O)O)NC(=O)[C@H](CO)NC(=O)[C@@H](NC(=O)[C@H](Cc1ccccc1)NC(=O)[C@@H](NC(=O)CNC(=O)[C@H](CCC(N)=O)NC(=O)C(C)(C)NC(=O)[C@@H](N)Cc1c[nH]cn1)[C@@H](C)O)[C@@H](C)O)C(C)C)C(C)C)C(=O)N[C@@H](CC(C)C)C(=O)NC(C)(C)C(=O)N[C@@H](CCC(=O)O)C(N)=O` [Peptide 420] (H-H[Aib]QGTFTSDVSK[αMeF]LDKK([AEEA-AEEA-γGlu-C18 diacid])RAQDFVRWLL[Aib]E-NH2; N-terminus assumed), the EC50 (as a rule, the concentration at which the effect is half-maximal) in data set [1] was found to be 0.0369 nM. For the same compound, in data set [3], the EC50 is 0.0231 nM and the “% Relative Potency Ratio” value was 3.2. Moreover, in “in vivo”, the bioavailability came out at 49% and the half-life is 5.7 h.

With `CC(C)C[C@H](NC(=O)[C@H](CC(C)C)NC(=O)[C@H](Cc1c[nH]c2ccccc12)NC(=O)[C@H](CCCNC(=N)N)NC(=O)[C@@H](NC(=O)[C@H](Cc1ccccc1)NC(=O)[C@H](CC(=O)O)NC(=O)[C@H](CCC(N)=O)NC(=O)[C@H](C)NC(=O)[C@H](CCCNC(=N)N)NC(=O)[C@H](CCCCNC(=O)COCCOCCNC(=O)COCCOCCNC(=O)CC[C@H](NC(=O)CCCCCCCCCCCCCCCCCCC(=O)O)C(=O)O)NC(=O)[C@@H](NC(=O)[C@H](CC(=O)O)NC(=O)[C@H](CC(C)C)NC(=O)[C@](C)(Cc1ccccc1)NC(=O)[C@H](CCCCN)NC(=O)[C@H](CO)NC(=O)[C@@H](NC(=O)[C@H](CC(=O)O)NC(=O)[C@H](CO)NC(=O)[C@@H](NC(=O)[C@H](Cc1ccccc1)NC(=O)[C@@H](NC(=O)CNC(=O)[C@H](CCC(N)=O)NC(=O)C(C)(C)NC(=O)[C@@H](N)Cc1c[nH]cn1)[C@@H](C)O)[C@@H](C)O)C(C)C)[C@@H](C)O)C(C)C)C(=O)N[C@@H](C)C(=O)NC(C)(C)C(=O)NCC(N)=O` [Peptide 477] (H-H[Aib]QGTFTSDVSK[αMeF]LDTK([AEEA-AEEA-γGlu-C20 diacid])RAQDFVRWLLA[Aib]G-NH2; N-terminus assumed), the EC50 in data set [1] was 0.117 nM. Moreover, in data set [3], the EC50 is 0.0541 nM and the “% Relative Potency Ratio” value was 4.3. In addition, in the data set “in vivo”, the bioavailability worked out at 50% and the half-life was 8.9 h.
